From US12226412B2, “Heteroaryl-ketone fused azadecalin glucocorticoid receptor modulators” (Corcept Therapeutics, Inc., priority 2012, dated 2025) come the findings set out here.

In assay [1] the target is T1, human recombinant GR (Homo sapiens, UniProt P04150).
T1 construct: purchased PanVera P2812
T1 sequence (P04150 1-777): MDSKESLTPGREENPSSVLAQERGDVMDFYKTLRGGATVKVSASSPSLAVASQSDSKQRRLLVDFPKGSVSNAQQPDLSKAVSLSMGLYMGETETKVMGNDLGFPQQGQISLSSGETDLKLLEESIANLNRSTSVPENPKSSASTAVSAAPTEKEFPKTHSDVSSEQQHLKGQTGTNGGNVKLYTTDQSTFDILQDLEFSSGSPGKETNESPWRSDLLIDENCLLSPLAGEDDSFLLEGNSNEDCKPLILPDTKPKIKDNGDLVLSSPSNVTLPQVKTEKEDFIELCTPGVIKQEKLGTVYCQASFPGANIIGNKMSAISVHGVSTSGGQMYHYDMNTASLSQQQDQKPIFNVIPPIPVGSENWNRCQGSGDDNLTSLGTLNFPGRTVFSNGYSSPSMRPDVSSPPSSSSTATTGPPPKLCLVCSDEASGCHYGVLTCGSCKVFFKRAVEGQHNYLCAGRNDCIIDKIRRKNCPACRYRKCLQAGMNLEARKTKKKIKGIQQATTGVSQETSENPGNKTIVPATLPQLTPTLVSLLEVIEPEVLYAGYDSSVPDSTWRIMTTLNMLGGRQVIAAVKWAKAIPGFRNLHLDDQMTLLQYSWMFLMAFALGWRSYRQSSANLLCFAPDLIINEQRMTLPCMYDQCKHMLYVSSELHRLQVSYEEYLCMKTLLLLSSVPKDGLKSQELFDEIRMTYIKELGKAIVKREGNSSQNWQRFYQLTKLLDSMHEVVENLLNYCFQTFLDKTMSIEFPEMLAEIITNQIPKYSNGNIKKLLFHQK
Put plainly: Human glucocorticoid receptor (GR) fluorescence polarisation (FP) binding assay. The essentials: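 Competition fluorescence polarisation: 0.5 nM GS Red labelled glucocorticoid and 1 nM recombinant human GR with 8-point half-log compound series, 1% DMSO, 4 h room temperature, potassium phosphate pH 7.4 buffer with molybdate, EDTA, DTT. Affinity derived from the drop in polarisation, normalised to blank wells.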

Assay [2] has as its system induction of TAT by dexamethasone in HepG2 cells. Briefly: HepG2 tyrosine aminotransferase (TAT) assay. In kind it is cell-based, human.
[3] abbreviates: human recombinant GR, fluorescence polarisation binding assay, read-out: GR binding.
Where [4] appears, read: HepG2 cells, challenge of 100 nM dexamethasone, Ki from IC50 by Cheng and Prusoff equation.

Like-named read-outs stand apart in the source and are kept apart here.

As to `Cc1cnc(C(=O)[C@]23Cc4cnn(-c5ccc(F)cc5)c4C=C2CCN(S(=O)(=O)c2ccc(F)c(F)c2)C3)s1` [Example 12Q, (R)-(6-((3,4-difluorophenyl)sulfonyl)-1-(4-fluorophenyl)-4,4a,5,6,7,8-hexahydro-1H-pyrazolo[3,4-g]isoquinolin-4a-yl)(5-methylthiazol-2-yl)methanone], the Ki was > 1 nM in assay [1] (setting [3]) and < 20 nM in assay [2] (setting [4]).

In the case of `O=C(c1nccs1)[C@]12Cc3cnn(-c4ccc(F)cc4)c3C=C1CCN(S(=O)(=O)c1ccc(C(F)(F)F)cc1)C2` [Example 1C, (R)-(1-(4-fluorophenyl)-6-((4-(trifluoromethyl)phenyl)sulfonyl)-4,4a,5,6,7,8-hexahydro-1H-pyrazolo[3,4-g]isoquinolin-4a-yl)(thiazol-2-yl)methanone], the Ki in assay [1] was < 0.5 nM; in assay [2], < 20 nM.

As for `Cc1ccnc(C(=O)[C@]23Cc4cnn(-c5ccc(F)cc5)c4C=C2CCN(S(=O)(=O)c2ccc(C(F)(F)F)c(F)c2)C3)c1` [Example 11AS, (R)-(6-((3-fluoro-4-(trifluoromethyl)phenyl)sulfonyl)-1-(4-fluorophenyl)-4,4a,5,6,7,8-hexahydro-1H-pyrazolo[3,4-g]isoquinolin-4a-yl)(4-methylpyridin-2-yl)methanone], the Ki in assay [1] (setting [3]) is < 0.5 nM; in assay [2] (setting [4]), < 20 nM.

As to `CCn1nccc1S(=O)(=O)N1CCC2=Cc3c(cnn3-c3ccc(F)cc3)C[C@]2(C(=O)c2cscn2)C1` [Example 11CW, (R)-(6-((1-ethyl-1H-pyrazol-5-yl)sulfonyl)-1-(4-fluorophenyl)-4,4a,5,6,7,8-hexahydro-1H-pyrazolo[3,4-g]isoquinolin-4a-yl)(thiazol-4-yl)methanone], the Ki in assay [1] (setting [3]) is < 0.5 nM; in assay [2] (setting [4]) it was 20 to 100 nM.

Consider `O=C(c1nccs1)[C@]12Cc3cnn(-c4ccc(F)cc4)c3C=C1CCN(S(=O)(=O)c1cccc(F)c1)C2` [Example 5A, (R)-(1-(4-fluorophenyl)-6-((3-fluorophenyl)sulfonyl)-4,4a,5,6,7,8-hexahydro-1H-pyrazolo[3,4-g]isoquinolin-4a-yl)(thiazol-2-yl)methanone], for which the Ki in assay [1] (setting [3]) was < 0.5 nM; in assay [2] (setting [4]), < 20 nM.

In the case of `CCCn1nncc1S(=O)(=O)N1CCC2=Cc3c(cnn3-c3ccc(F)cc3)C[C@]2(C(=O)c2ccccn2)C1` [Example 11CO, (R)-(1-(4-fluorophenyl)-6-((1-propyl-1H-1,2,3-triazol-5-yl)sulfonyl)-4,4a,5,6,7,8-hexahydro-1H-pyrazolo[3,4-g]isoquinolin-4a-yl)(pyridin-2-yl)methanone], the Ki in assay [1] (setting [3]) was > 1 nM; in assay [2] (setting [4]), 20 to 100 nM.

As to `CCn1ncc(S(=O)(=O)N2CCC3=Cc4c(cnn4-c4ccc(F)cc4)C[C@]3(C(=O)c3cc(C(F)(F)F)ccn3)C2)n1` [Example 11CK, (R)-(6-((2-ethyl-2H-1,2,3-triazol-4-yl)sulfonyl)-1-(4-fluorophenyl)-4,4a,5,6,7,8-hexahydro-1H-pyrazolo[3,4-g]isoquinolin-4a-yl)(4-(trifluoromethyl)pyridin-2-yl)methanone], the Ki in assay [1] (setting [3]) is < 0.5 nM; in assay [2] (setting [4]) it was < 20 nM.

For `O=C(c1nccs1)[C@]12Cc3cnn(-c4ccc(F)cc4)c3C=C1CCN(S(=O)(=O)c1cccc(Cl)c1)C2` [Example 12E, (R)-(6-((3-chlorophenyl)sulfonyl)-1-(4-fluorophenyl)-4,4a,5,6,7,8-hexahydro-1H-pyrazolo[3,4-g]isoquinolin-4a-yl)(thiazol-2-yl)methanone], the Ki was < 0.5 nM in assay [1] (setting [3]) and 20 to 100 nM in assay [2] (setting [4]).

For `O=C(c1cccs1)[C@]12Cc3cnn(-c4ccc(F)cc4)c3C=C1CCN(S(=O)(=O)c1ccc(C(F)(F)F)cc1)C2` [Example 1H, (R)-(1-(4-fluorophenyl)-6-((4-(trifluoromethyl)phenyl)sulfonyl)-4,4a,5,6,7,8-hexahydro-1H-pyrazolo[3,4-g]isoquinolin-4a-yl)(thiophen-2-yl)methanone], the Ki in assay [1] was < 0.5 nM; in assay [2] it was 20 to 100 nM.

For the compound `O=C(c1ccccn1)[C@]12Cc3cnn(-c4ccc(F)cc4)c3C=C1CCN(S(=O)(=O)C1CCCCC1)C2` [Example 2T, (R)-(6-(cyclohexylsulfonyl)-1-(4-fluorophenyl)-4,4a,5,6,7,8-hexahydro-1H-pyrazolo [3,4-g]isoquinolin-4a-yl)(pyridin-2-yl)methanone], the Ki in assay [1] (setting [3]) is > 1 nM; in assay [2] (setting [4]), ≥ 100 nM.

Turning to `Cc1ccnc(C(=O)[C@]23Cc4cnn(-c5ccc(F)cc5)c4C=C2CCN(S(=O)(=O)c2ccnc(C(F)(F)F)c2)C3)c1` [Example 11BB, (R)-(1-(4-fluorophenyl)-6-((2-(trifluoromethyl)pyridin-4-yl)sulfonyl)-4,4a,5,6,7,8-hexahydro-1H-pyrazolo[3,4-g]isoquinolin-4a-yl)(4-methylpyridin-2-yl)methanone], the Ki in assay [1] (setting [3]) is < 0.5 nM; in assay [2] (setting [4]) it was < 20 nM.

Consider `CCn1nccc1S(=O)(=O)N1CCC2=Cc3c(cnn3-c3ccc(F)cc3)C[C@]2(C(=O)c2nccs2)C1` [Example 12W, (R)-(6-((1-ethyl-1H-pyrazol-5-yl)sulfonyl)-1-(4-fluorophenyl)-4,4a,5,6,7,8-hexahydro-1H-pyrazolo[3,4-g]isoquinolin-4a-yl)(thiazol-2-yl)methanone], for which the Ki was > 1 nM in assay [1] (setting [3]) and ≥ 100 nM in assay [2] (setting [4]).

With `O=C(c1ccccn1)[C@]12Cc3cnn(-c4ccc(F)cc4)c3C=C1CCN(S(=O)(=O)c1ccc(C(F)(F)F)c(F)c1)C2` [Example 11AT, (R)-(6-((3-fluoro-4-(trifluoromethyl)phenyl)sulfonyl)-1-(4-fluorophenyl)-4,4a,5,6,7,8-hexahydro-1H-pyrazolo[3,4-g]isoquinolin-4a-yl)(pyridin-2-yl)methanone], the values for the Ki in assay [1] and in assay [2] were < 0.5 nM and < 20 nM, respectively.

In the case of `O=C(c1cc(C(F)(F)F)ccn1)[C@]12Cc3cnn(-c4ccc(F)cc4)c3C=C1CCN(S(=O)(=O)c1cn[nH]c1)C2` [Example 11BO, (R)-(6-((1H-pyrazol-4-yl)sulfonyl)-1-(4-fluorophenyl)-4,4a,5,6,7,8-hexahydro-1H-pyrazolo[3,4-g]isoquinolin-4a-yl)(4-(trifluoromethyl)pyridin-2-yl)methanone], the Ki was < 0.5 nM in assay [1] (setting [3]) and < 20 nM in assay [2] (setting [4]).

For `Cn1ccnc1C(=O)[C@]12Cc3cnn(-c4ccc(F)cc4)c3C=C1CCN(S(=O)(=O)c1ccc(C(F)(F)F)cc1)C2` [Example 1A, (R)-(1-(4-fluorophenyl)-6-((4-(trifluoromethyl)phenyl)sulfonyl)-4,4a,5,6,7,8-hexahydro-1H-pyrazolo[3,4-g]isoquinolin-4a-yl)(1-methyl-1H-imidazol-2-yl)methanone], the Ki fell in the range of 0.5 to 1 nM in assay [1] (setting [3]) and 20 to 100 nM in assay [2] (setting [4]).

For the compound `CN(C)c1ccc(S(=O)(=O)N2CCC3=Cc4c(cnn4-c4ccc(F)cc4)C[C@]3(C(=O)c3ccccn3)C2)cn1` [Example 16, (R)-(6-((6-(dimethylamino)pyridin-3-yl)sulfonyl)-1-(4-fluorophenyl)-4,4a,5,6,7,8-hexahydro-1H-pyrazolo[3,4-g]isoquinolin-4a-yl)(pyridin-2-yl)methanone], the values for the Ki in assay [1] (setting [3]) and in assay [2] (setting [4]) were < 0.5 nM and 20 to 100 nM, respectively.

Consider `CC(C)n1cc(S(=O)(=O)N2CCC3=Cc4c(cnn4-c4ccc(F)cc4)C[C@]3(C(=O)c3ccccn3)C2)cn1` [Example 11CD, (R)-(1-(4-fluorophenyl)-6-((1-isopropyl-1H-pyrazol-4-yl)sulfonyl)-4,4a,5,6,7,8-hexahydro-1H-pyrazolo[3,4-g]isoquinolin-4a-yl)(pyridin-2-yl) methanone], for which the results for the Ki in assay [1] (setting [3]) and in assay [2] (setting [4]) were < 0.5 nM and < 20 nM, respectively.

Regarding `O=C(c1nccs1)[C@]12Cc3cnn(-c4ccc(F)cc4)c3C=C1CCN(S(=O)(=O)c1ccc(Cl)c(Cl)c1)C2` [Example 12N, (R)-(6-((3,4-dichlorophenyl)sulfonyl)-1-(4-fluorophenyl)-4,4a,5,6,7,8-hexahydro-1H-pyrazolo[3,4-g]isoquinolin-4a-yl)(thiazol-2-yl)methanone], the results for the Ki in assay [1] (setting [3]) and in assay [2] (setting [4]) were 0.5 to 1 nM and < 20 nM, respectively.

Turning to `N#Cc1ccc(S(=O)(=O)N2CCC3=Cc4c(cnn4-c4ccc(F)cc4)C[C@]3(C(=O)c3ccccn3)C2)cc1` [Example 2Q, (R)-4-((1-(4-fluorophenyl)-4a-picolinoyl-4a,5,7,8-tetrahydro-1H-pyrazolo[3,4-g]isoquinolin-6 (4H)-yl)sulfonyl)benzonitrile], the Ki in assay [1] (setting [3]) was < 0.5 nM; in assay [2] (setting [4]), 20 to 100 nM.

With `O=C(c1nccs1)[C@]12Cc3cnn(-c4ccc(F)cc4)c3C=C1CCN(S(=O)(=O)c1ccc(F)c(F)c1)C2` [Example 12P, (R)-(6-((3,4-difluorophenyl)sulfonyl)-1-(4-fluorophenyl)-4,4a,5,6,7,8-hexahydro-1H-pyrazolo[3,4-g]isoquinolin-4a-yl)(thiazol-2-yl)methanone], the Ki in assay [1] (setting [3]) is < 0.5 nM; in assay [2] (setting [4]), 20 to 100 nM.
